Laboratory results as given in the NIST ThermoML archive (doi:10.1016/j.jct.2017.07.018).
± gives the expanded uncertainty stated by the source.

Details: for vapor or sublimation pressure: Liquid, Gas chromatography

C=CC(C)(O)CC/C=C(\C)CCC=C(C)C (centres undefined) [(E)-3,7,11-trimethyldodeca-1,6,10-trien-3-ol]
Details	vapor or sublimation pressure [kPa]
298.15 K	6e-05 ± 2e-05
310 K	0.00024 ± 8e-05
320 K	0.00074 ± 0.00025
330 K	0.0021 ± 0.0007
340 K	0.0053 ± 0.0016
350 K	0.013 ± 0.004
360 K	0.028 ± 0.009
370 K	0.058 ± 0.018
380 K	0.115 ± 0.033
390 K	0.22 ± 0.058
400 K	0.39 ± 0.092
410 K	0.67 ± 0.14
420 K	1.1 ± 0.2
430 K	1.8 ± 0.27
440 K	2.8 ± 0.34
450 K	4.3 ± 0.43
460 K	6.3 ± 0.54
470 K	9.1 ± 0.71
480 K	13 ± 1
490 K	18 ± 1.4
500 K	24 ± 1.9
554.7 K	101.33 ± 13

OC12CC3CC(CC(C3)C1)C2 [1-adamantanol]
Details	vapor or sublimation pressure [kPa]
298.15 K	0.0019 ± 0.0002
310 K	0.0062 ± 0.0005
320 K	0.015 ± 0.002
330 K	0.035 ± 0.005
340 K	0.074 ± 0.011
350 K	0.15 ± 0.021
360 K	0.28 ± 0.038
370 K	0.51 ± 0.063
380 K	0.88 ± 0.095
390 K	1.5 ± 0.14
400 K	2.3 ± 0.19
410 K	3.6 ± 0.28
420 K	5.4 ± 0.42
430 K	7.9 ± 0.61
440 K	11 ± 0.85
450 K	16 ± 1.2
460 K	22 ± 1.7
470 K	29 ± 2.2
480 K	38 ± 3.1
490 K	49 ± 4.7
500 K	62 ± 7.6
521.2 K	101.33 ± 10

C[C@@H]1CC[C@H]2C(C)(C)[C@H]3C[C@@]12CC[C@@]3(C)O [(+)-cedrol]
Details	vapor or sublimation pressure [kPa]
298.15 K	7e-05 ± 2e-05
310 K	0.00029 ± 0.0001
320 K	0.00084 ± 0.00027
330 K	0.0022 ± 0.0007
340 K	0.0055 ± 0.0018
350 K	0.013 ± 0.004
360 K	0.027 ± 0.009
370 K	0.054 ± 0.017
380 K	0.1 ± 0.031
390 K	0.19 ± 0.05
400 K	0.33 ± 0.08
410 K	0.55 ± 0.12
420 K	0.89 ± 0.16
430 K	1.4 ± 0.21
440 K	2.1 ± 0.27
450 K	3.1 ± 0.33
460 K	4.5 ± 0.4
470 K	6.3 ± 0.5
480 K	8.7 ± 0.68
490 K	12 ± 0.93
500 K	16 ± 1.2
583.5 K	101.33 ± 15

Details	Normal melting temperature [°C]
Crystal, visual observation	86.00 ± 3

C=CC(C)(O)CC/C=C(/C)CCC=C(C)C (centres undefined) [(Z)-3,7,11-trimethyldodeca-1,6,10-trien-3-ol]
Details	vapor or sublimation pressure [kPa]
298.15 K	7.5e-05 ± 4e-05
310 K	0.00032 ± 0.0001
320 K	0.001 ± 0.0003
330 K	0.0026 ± 0.0008
340 K	0.0067 ± 0.0017
350 K	0.016 ± 0.005
360 K	0.034 ± 0.011
370 K	0.071 ± 0.021
380 K	0.14 ± 0.039
390 K	0.26 ± 0.067
400 K	0.46 ± 0.11
410 K	0.79 ± 0.16
420 K	1.3 ± 0.22
430 K	2.1 ± 0.3
440 K	3.3 ± 0.4
450 K	4.9 ± 0.49
460 K	7.2 ± 0.61
470 K	10 ± 0.78
480 K	15 ± 1.2
490 K	20 ± 1.6
500 K	27 ± 2.1
550.3 K	101.33 ± 13
